The text below walks through data of ChEMBL document CHEMBL5579815, “Novel angiogenesis inhibitors with superoxide anion radical amplification effect: Surmounting the Achilles' heels of angiogenesis inhibitors and photosensitizers” (Eur J Med Chem, 2024).

The subject of data set [1] is SK-MEL-28. The data set is described as follows: Induction of apoptosis in human SK-MEL-28 cells assessed as necrotic cells at 1 uM preincubated for 24 hrs under normoxic condition followed by media removal and irradiated with 650 nm 10 mW/cm2 light for 15 mins under normoxic condition by Annexin V-FITC/propidium iodide staining based flow cytometry (reference value: 2.63%). Type of data set: functional.

Data set [2] in a line: Induction of ROS generation in methanol solution assessed as increase in singlet oxygen level by measuring reduction in ABDA absorption peak at 10 uM irradiated with 650 nm 10 mW/cm2 light for upto 9 mins by ABDA probe based UV-vis absorption spectra analysis. Type of data set: functional.
For data set [3], the system named is SK-MEL-28. The data set is described as follows: Induction of apoptosis in human SK-MEL-28 cells assessed as viable cells at 1 uM preincubated for 24 hrs under hypoxic condition followed by media removal and irradiated with 650 nm 10 mW/cm2 light for 15 mins under hypoxic condition by Annexin V-FITC/propidium iodide staining based flow cytometry (reference value: 93.62%). Type of data set: functional. The following applies: SK-MEL-28, light or radiation study, read-out: Activity. On the technique in general: A flow cytometer gives signals particle by particle.

Data set [4] can be described thus: Induction of ROS generation in methanol solution assessed as increase in superoxide anion radical level by measuring fold increase in DHR123 fluorescence intensity at 10 uM irradiated with 650 nm 10 mW/cm2 light for upto 15 mins by DHR123 probe based fluorescence spectra analysis relative to control. The data set is classed as functional.
Data set [5] concerns SK-MEL-28. Description: Induction of apoptosis in human SK-MEL-28 cells assessed as early apoptotic cells at 2 uM preincubated for 24 hrs under normoxic condition followed by media removal and irradiated with 650 nm 10 mW/cm2 light for 15 mins under normoxic condition by Annexin V-FITC/propidium iodide staining based flow cytometry (reference value: 1.8%). The data set is classed as functional.

Data set [6] has as its system SK-MEL-28. Description: Induction of apoptosis in human SK-MEL-28 cells assessed as early apoptotic cells at 2 uM preincubated for 24 hrs under hypoxic condition followed by media removal and irradiated with 650 nm 10 mW/cm2 light for 15 mins under hypoxic condition by Annexin V-FITC/propidium iodide staining based flow cytometry (reference value: 1.8%). Type of data set: functional.

The subject of data set [7] is SK-MEL-28. Description: Cytotoxicity against human SK-MEL-28 cells assessed as reduction in cell viability preincubated for 24 hrs under hypoxic condition followed by media removal and irradiated with 650 nm 10 mW/cm2 light for 15 mins under hypoxic condition prior to media replacement and measured after 24 hrs by MTT assay. The data set is classed as functional, cell-based. To be noted: SK-MEL-28, light or radiation study. A general note: Tetrazolium assays rely on reduction of a dye to a coloured formazan, in cell work by metabolically active cells.

The subject of data set [8] is SK-MEL-28. Description: Induction of apoptosis in human SK-MEL-28 cells assessed as necrotic cells at 0.5 uM preincubated for 24 hrs under normoxic condition followed by media removal and irradiated with 650 nm 10 mW/cm2 light for 15 mins under normoxic condition by Annexin V-FITC/propidium iodide staining based flow cytometry (reference value: 2.63%). Type of data set: functional.

Data set [9] has as its system SK-MEL-28. The data set is described as follows: Induction of apoptosis in human SK-MEL-28 cells assessed as late apoptotic cells at 0.5 uM preincubated for 24 hrs under hypoxic condition followed by media removal and irradiated with 650 nm 10 mW/cm2 light for 15 mins under hypoxic condition by Annexin V-FITC/propidium iodide staining based flow cytometry (reference value: 1.95%). The data set is classed as functional.

Data set [10] deals with SK-MEL-28. The data set is described as follows: Induction of apoptosis in human SK-MEL-28 cells assessed as viable cells at 0.5 uM preincubated for 24 hrs under hypoxic condition followed by media removal and irradiated with 650 nm 10 mW/cm2 light for 15 mins under hypoxic condition by Annexin V-FITC/propidium iodide staining based flow cytometry (reference value: 93.62%). Type of data set: functional. To be noted: SK-MEL-28, light or radiation study, read-out: Activity.

In data set [11] the test system is EA.hy 926. The data set is described as follows: Antiangiogenic activity in human EA.hy 926 cells assessed as reduction in cell viability at 0.008 to 1 uM preincubated for 24 hrs under normoxic condition followed by media removal and irradiated with 650 nm 10 mW/cm2 light for 15 mins under normoxic condition prior to media replacement and measured after 24 hrs by MTT assay. The data set is classed as functional, cell-based. The following applies: dose 0.008-1 µM.

Data set [12] concerns HEK293. The data set is described as follows: Dark toxicity in HEK293 cells assessed as reduction in cell viability at 0.078 to 10 uM by MTT assay. Type of data set: cell-based. To be noted: human, hek293, 10 µM; dose 0.078-10 µM.
The subject of data set [13] is EA.hy 926. Description: Antiangiogenic activity in human EA.hy 926 cells assessed as reduction in cell viability at 0.008 to 1 uM preincubated for 24 hrs under hypoxic condition followed by media removal and irradiated with 650 nm 10 mW/cm2 light for 15 mins under hypoxic condition prior to media replacement and measured after 24 hrs by MTT assay. Type of data set: functional, cell-based. To be noted: dose 0.008-1 µM.

The test system of data set [14] is SK-MEL-28. The data set is described as follows: Induction of apoptosis in human SK-MEL-28 cells preincubated for 24 hrs under hypoxic condition followed by media removal and irradiated with 650 nm 10 mW/cm2 light for 15 mins under hypoxic condition by Annexin V-FITC/propidium iodide staining based flow cytometry. The data set is classed as functional, cell-based. To be noted: dose 0.5-2 µM.

Data set [15] has as its system SK-MEL-28. The data set is described as follows: Cytotoxicity against human SK-MEL-28 cells assessed as reduction in cell viability preincubated for 24 hrs under normoxic condition followed by media removal and irradiated with 650 nm 10 mW/cm2 light for 15 mins under normoxic condition prior to media replacement and measured after 24 hrs by MTT assay. The data set is classed as functional, cell-based. To be noted: SK-MEL-28, light or radiation study.

Data set [16] has as its system SK-MEL-28. The data set is described as follows: Induction of apoptosis in human SK-MEL-28 cells assessed as late apoptotic cells at 1 uM preincubated for 24 hrs under normoxic condition followed by media removal and irradiated with 650 nm 10 mW/cm2 light for 15 mins under normoxic condition by Annexin V-FITC/propidium iodide staining based flow cytometry (reference value: 1.95%). Type of data set: functional.

The subject of data set [17] is SK-MEL-28. Description: Induction of apoptosis in human SK-MEL-28 cells assessed as necrotic cells at 1 uM preincubated for 24 hrs under hypoxic condition followed by media removal and irradiated with 650 nm 10 mW/cm2 light for 15 mins under hypoxic condition by Annexin V-FITC/propidium iodide staining based flow cytometry (reference value: 2.63%). The data set is classed as functional.

The test system of data set [18] is SK-MEL-28. The data set is described as follows: Induction of apoptosis in human SK-MEL-28 cells assessed as early apoptotic cells at 0.5 uM preincubated for 24 hrs under hypoxic condition followed by media removal and irradiated with 650 nm 10 mW/cm2 light for 15 mins under hypoxic condition by Annexin V-FITC/propidium iodide staining based flow cytometry (reference value: 1.8%). The data set is classed as functional.

For data set [19], the system named is SK-MEL-28. The data set is described as follows: Induction of apoptosis in human SK-MEL-28 cells assessed as early apoptotic cells at 1 uM preincubated for 24 hrs under normoxic condition followed by media removal and irradiated with 650 nm 10 mW/cm2 light for 15 mins under normoxic condition by Annexin V-FITC/propidium iodide staining based flow cytometry (reference value: 1.8%). Type of data set: functional.

The nature of data set [20]: Drug uptake in human EA.hy 926 cells at 1 uM measured after 24 hrs by flow cytometry. Type of data set: ADME, cell-based. The following applies: ea.hy 926, 24 h.
Data set [21] has as its system SK-MEL-28. Description: Induction of apoptosis in human SK-MEL-28 cells assessed as necrotic cells at 0.5 uM preincubated for 24 hrs under hypoxic condition followed by media removal and irradiated with 650 nm 10 mW/cm2 light for 15 mins under hypoxic condition by Annexin V-FITC/propidium iodide staining based flow cytometry (reference value: 2.63%). The data set is classed as functional.

The nature of data set [22]: Drug uptake in human SK-MEL-28 cells at 1 uM measured after 24 hrs by flow cytometry. Type of data set: ADME, cell-based. The following applies: sk-mel-28, 24 h.
Data set [23] in a line: Drug uptake in HEK293 cells at 1 uM measured after 24 hrs by flow cytometry. The data set is classed as ADME, cell-based. The following applies: human, hek293, 24 h.
In data set [24] the test system is SK-MEL-28. Description: Induction of apoptosis in human SK-MEL-28 cells assessed as viable cells at 0.5 uM preincubated for 24 hrs under normoxic condition followed by media removal and irradiated with 650 nm 10 mW/cm2 light for 15 mins under normoxic condition by Annexin V-FITC/propidium iodide staining based flow cytometry (reference value: 93.62%). The data set is classed as functional. The following applies: SK-MEL-28, light or radiation study, read-out: Activity.

Calls of active or inactive are those of the source. The rule behind the calls is not given here.

Consider `CCN(CC)c1ccc2nc3c4ccccc4/c(=N\CCCCCCNC(=O)c4cc(Oc5ccc(NC(=O)Nc6ccc(Cl)c(C(F)(F)F)c6)cc5)ccn4)cc-3sc2c1`, for which the Activity in data set [1] was 23.01%; in data set [5], 39.5%; in [6] it was 10.55%; in data set [8], 11.1%; in [9], 7.05%; in data set [12], “Non-Toxic”. Moreover, the Activity result is “Dose-Dependent Effect” in [14]; 8.8% in data set [16]; 19.45% in data set [17]; 3.13% in data set [18]; 3.59% in data set [19]; 11.5% in data set [21]. Further, in [2], the result was inactive. Also, the viability at 1 µM in data set [3] is 69%. Further, the fold change (FC) in [4] was found to be 6.6. Moreover, the concentration for half-maximal inhibition (IC50) in data set [7] worked out at 158 nM; in data set [15] it was 100 nM. Moreover, the viability at 0.5 µM in [10] was 78.3%; in data set [24] it was 73.2%. Moreover, the outcome in [11] and in data set [13] was Active. Also, the Drug uptake entry in data set [20], in data set [22] and in [23] was “Active” throughout.

In general, IC50 refers to the point on the concentration scale where inhibition reaches its midpoint.
